Molecular target: TPI (triosephosphate isomerase), recombinant
Test: isothermal titration calorimetry
Format: binding
Details: 100 μM TPI, 1 mM palmitic amide; DMSO control

Kd: 4.89 ± 1.23 µM
Structure (SMILES): CCCCCCCCCCCCCCCC(N)=O [palmitic amide]
